# Test results as given in patent US6294519A, “Method for treating ischemia” (University of Kentucky Research Foundation, priority 2000, dated 2001).
# Test system: focal middle cerebral arterial occlusion (MCAO) ischemia
# Details: for neurological deficits (behavior ranking 0 to 3): 4 mg/kg i.p. at 6.5, 4.5, 2.5 and 0.5 h prior to ischemia, 24 h reperfusion, mean±SEM, n=8, 0=normal, 3=severe; for neurological deficits (behavior ranking 0 to 3) / infarct volume reduction compared to control animals: 1 h MCAO; for infarct volume reduction compared to control animals / differences in MABP, pO2, pCO2, pH or rectal temperature versus control animals: 4 mg/kg i.p. x4 prior to ischemia; for infarct volume reduction compared to control animals / statistical significance of the infarct volume difference versus control: after 24 h of reperfusion; for statistical significance of the infarct volume difference versus control: significance at p<0.05; for differences in MABP, pO2, pCO2, pH or rectal temperature versus control animals: post ischemia
SMILES,neurological deficits (behavior ranking 0 to 3),infarct volume reduction compared to control animals [%],statistical significance of the infarct volume difference versus control,"differences in MABP, pO2, pCO2, pH or rectal temperature versus control animals"
"CC(C)C[C@@H](NC(=O)[C@H](Cc1ccccc1)NC(=O)CNC(=O)[C@@H](C)NC(=O)[C@@H](N)Cc1ccc(O)cc1)C(=O)O [DADLE, Tyr-D-Ala-Gly-Phe-D-Leu-enkephalin]",1.73±0.20,12,not statistically significant,no significant differences
"CC(C)[C@H](NC(=O)[C@H](CC(=O)O)NC(=O)[C@H](Cc1ccccc1)NC(=O)[C@@H](C)NC(=O)[C@@H](N)Cc1ccc(O)cc1)C(=O)N[C@H](C(=O)NCC(N)=O)C(C)C [deltorphin, Tyr-Ala-Phe-Asp-Val-Val-Gly-NH2]",0.44±0.11,42,significantly reduced,no significant differences
